Assay results reported in article PMC6337169, “Catechol 1,2-Dioxygenase is an Analogue of Homogentisate 1,2-Dioxygenase in Pseudomonas chlororaphis Strain UFB2” (International Journal of Molecular Sciences, 2018).

System: T1, catechol 1,2-dioxygenase (C12O) from PcUFB2; identified by ES-MS as homogentisate 1,2-dioxygenase (H12D)
T1 construct: gene hmgA; native purification from UFB2 cells grown on phenol (ANX anion exchange, Sephacryl HR100); 35 kDa on SDS-PAGE
Assay: UV spectrophotometry, cis,cis-muconic acid at […] nm; Lineweaver-Burk / Michaelis-Menten fit
Assay type: biochemical, Pseudomonas chlororaphis
Conditions: 50 mM sodium phosphate pH 8, 30 °C, 30 min, 0-500 µM catechol

Oc1ccccc1O [catechol]
Km: 35.8 µM
